Values joined by “and” are separate entries in the source; they are usually repeats but may differ in a detail not shown here. Identical values can stand only once.
Columns and labels:
[1] = system: AR cellular signaling pathway; test: THP-1 cells cultured 24 hrs with LPS, then DHT or AR inhibitor (FIG. 35, Table 7); pathway analysis; assay type: cell-based
Experimental: (§1) FIG. 35 Schematic overview of AR inhibitor experiment. Depicts the experimental setup to determine if AR inhibitors can be used to mitigate the effect of LPS on monocytes (THP-1 cells). […] In a parallel experiment, THP-1 cells are first cultured for 24 hours with LPS, after which the medium is changed and the cells are cultured with one of ARCC-4, ARD-266, A-458 and bicalutamide.
(§2) FIG. 35 describes the experimental set-up used. […] In a parallel experiment, THP-1 cells are first cultured for 24 hours with LPS, after which the medium is changed and the cells are cultured with one of ARCC-4, ARD-266, A-458 and bicalutamide.
All experimental conditions were subjected to cellular signaling pathways analysis.

[2] = system: TGFbeta cellular signaling pathway; test: as above; assay type: cell-based
Experimental: as §1, §2
As expected the remaining AR inhibitors were not able to mitigate the effect of LPS on TGFbeta cellular signaling pathway activity.
AR and TGFbeta pathways are functional in monocytic cells (Table 7).

[3] = system: TGFBeta pathway; test: THP-1 cell line stimulated with LPS or DHT and inhibited with Bicalutamide or Enzalutamide (Table 9A); assay type: cell-based
Experimental: (§3) LPS is considered the main mediator of the sepsis symptoms. An in vitro experiment was designed where monocytes were stimulated with LPS and subsequently treated with a variety of inhibitors. […] 26 Aug.
(§4) After stimulation cells were harvested and RNA was extracted using the RNeasy mini kit (Qiagen, 74104). qPCR-based STP activity scores were calculated using the Philips Research OncoSignal platform (www.philips.com/oncosignal), as described herein.

[4] = system: AR pathway; test: as above; assay type: cell-based
Experimental: as §3, §4

[5] = system: TGFBeta pathway; test: MOLT-4 lymphoid cell line stimulated with LPS or DHT and inhibited with Bicalutamide or Enzalutamide (Table 9B); assay type: cell-based
Experimental: (§5) MOLT-4 (ATCC CRL-1582) were cultured in RPMI1640 media, supplemented with 10% FBS, 1% glutamax and 1% pen strep at 37° C. 5% CO2.
as §4

[6] = system: AR pathway; test: as above; assay type: cell-based; details: stimulated 5 hours and subsequently inhibited
Experimental: as §5, §4

[7] = system: AR cellular signaling pathway; test: THP-1 sepsis prevention model, qPCR-based STP activity score; assay type: cell-based
[8] = system: TGFbeta cellular signaling pathway; test: as above; assay type: cell-based
[9] = system: AR pathway; test: PBMCs of sepsis patients treated in vitro 24 hours with inhibitors, pathway activity score; assay type: cell-based, human; design: AR Pathway activity scores of sepsis PBMC patients: scale not given here; details: EXP 2, individual patient samples, Resatorvid 10 uM, D4-abiraterone 10 uM, A-485 100 nM, Galunisertib 10 uM
Experimental: (§6) PBMC samples from healthy volunteers and sepsis patients were obtained via Tissue solutions. Briefly, cryopreserved PBMCs were first washed with washing buffer (PBS/1% BSA/2 mM EDTA), centrifuged and pellet resuspended in culture medium (RPM11640 without phenol red+8.5% charcoal stripped FBS+1% Glx+1% p/s). 0.5·10^5-1·10^6 cells were seeded per well in 24 wells plate and rested for 1 hour before treatment experiment. 10 PBMC samples from healthy donors were used to; (1) measure the baseline pathway levels, (2) activate with LPS
(§7) Sepsis treatment model: PBMC derived from sepsis patients (n=20) were treated 24 hours with compounds, DMSO or combination of compounds. (PBMC from healthy and sepsis patients are originating from the same hospital to minimize bias in sample prep). After stimulation cells were harvested and RNA was extracted using the RNeasy mini kit (Qiagen, 74104). qPCR was performed using the Philips Research OncoSignal platform.
(§8) In total 18 PBMCs sepsis samples were treated for 24 hours with selected inhibitors (and combinations), 6 patient samples per experiment.

[10] = system: TGFbeta pathway; test: as above; assay type: cell-based, human; design: scale not given here; details: EXP 2, individual patient samples, Resatorvid 10 uM, D4-abiraterone 10 uM, A-485 100 nM, Galunisertib 10 uM
Experimental: as §6, §7, §8

[11] = system: HH (Hedgehog) cellular signaling pathway; assay type: cell-based
Experimental: as §1, §2

[12] = system: ER cellular signaling pathway; assay type: cell-based
Experimental: as §1, §2

[13] = THP-1, DHT (25 nM) alone or + Bicalutamide (5 uM) or Enzalutamide (5 uM), stimulated 5 hours and subsequently inhibited
[14] = THP-1, LPS (50 ng/mL) alone or + Bicalutamide (5 uM) or Enzalutamide (5 uM), stimulated 5 hours and subsequently inhibited
[15] = DHT (25 nM) alone or + Bicalutamide (5 uM) or Enzalutamide (5 uM)
[16] = 24 hrs 25 uM Bicalutamide or DMSO, then 24 hrs DHT
[17] = 24 hrs 25 uM Bicalutamide or DMSO, then 24 hrs LPS
[18] = 24 hrs 25 uM Bicalutamide, then 24 hrs PBS
[19] = THP-1, 24 hours LPS, medium changed, then inhibitor

For `C[C@]12CC[C@H]3[C@@H](CCC4=CC(=O)CC[C@@]43C)[C@@H]1CC[C@@H]2O` [Testosterone], the “AR pathway activity, ligand stimulation” value ([1]; THP-1 cells) was “induced activity”.

“TGFbeta: original ligand for the TGFbeta STP added to monocytic cells” was tested, and the “TGFbeta pathway activity, ligand stimulation” value ([2]; monocytic cells (THP-1)) was “induced activity”.

In the case of `CC(O)(CS(=O)(=O)c1ccc(F)cc1)C(=O)Nc1ccc(C#N)c(C(F)(F)F)c1` (stereo not drawn) [Bicalutamide], the “TGFbeta STP activity” value [3, 13] is reported as 15.6 normalized scores, the “TGFbeta STP activity” value [3, 14] is reported as 34.6 normalized scores and the “AR STP activity” value [4, 13] is reported as 6.7 normalized scores. For the same compound, the “AR STP activity” value [4, 14] was 20.2 normalized scores, the “TGFbeta STP activity” value ([5]; MOLT-4, DHT (25 nM) alone or + Bicalutamide (5 uM) or Enzalutamide (5 uM), stimulated 5 hours and subsequently inhibited) was 13.9 normalized scores and the “TGFbeta STP activity” value ([5]; MOLT-4, LPS (50 ng/mL) alone or + Bicalutamide (5 uM) or Enzalutamide (5 uM), stimulated 5 hours and subsequently inhibited) was 14.1 normalized scores. For the same compound, the “AR STP activity” value [6, 15] was 7.4 normalized scores, the “AR STP activity” value ([6]; LPS (50 ng/mL) alone or + Bicalutamide (5 uM) or Enzalutamide (5 uM)) was 7.2 normalized scores and the “Average AR STP score” value [7, 16] was 3.17 normalized scores. For the same compound, the “Average AR STP score” value [7, 17] was 12.93 normalized scores, the “Average AR STP score” value [7, 18] was 2.63 normalized scores and the “Average TGFbeta STP score” value [8, 16] was 1.04 normalized scores. For the same compound, the “Average TGFbeta STP score” value [8, 17] was 9.78 normalized scores and the “Average TGFbeta STP score” value [8, 18] was 1.25 normalized scores.

In the case of `CNC(=O)Nc1ccc2c(c1)CC[C@@]21OC(=O)N(CC(=O)N(Cc2ccc(F)cc2)[C@@H](C)C(F)(F)F)C1=O` [A-485], the “LPS induced AR activity after addition of inhibitor (FIG. 36)” value [1, 19] is reported as “reduction of AR activity”, the “AR Pathway activity scores of sepsis PBMC patients” value [9] is reported as 24 and 27 and 25 and the “TGFbeta Pathway activity scores of sepsis PBMC patients” value [10] is reported as 28 and 33 and 35. For the same compound, the “LPS induced TGFbeta activity after addition of inhibitor (FIG. 39)” value [2, 19] was “reduction of LPS induced TGFbeta activity”.

With `C[C@]12CCC(=O)C[C@@H]1CC[C@@H]1[C@@H]2CC[C@]2(C)[C@@H](O)CC[C@@H]12` [DHT, dihydrotestosterone] the “AR cellular signaling pathway activity, effect of stimulus (FIG. 36)” value [1] was “increase”, the “TGFbeta STP activity” value [3] was 12.9 normalized scores and the “AR STP activity” value [4] was 8.7 normalized scores. The “TGFbeta STP activity” value [5] was 14.1 normalized scores, the “AR STP activity” value [6, 15] was 7.5 normalized scores and the “Average AR STP score” value [7, 16] was 6.13 normalized scores. For the same compound, the “HH cellular signaling pathway activity (FIG. 38)” value [11] was “not substantially affected”, the “ER cellular signaling pathway activity (FIG. 37)” value [12] was “not substantially affected” and the “Average TGFbeta STP score” value [8, 16] was 1.27 normalized scores. The “TGFbeta signaling activity, effect of stimulus (FIG. 39)” value [2] was “did not increase”.

Source: patent US20250262192A1, “PROGNOSTIC PATHWAYS FOR HIGH RISK SEPSIS PATIENTS” (KONINKLIJKE PHILIPS N.V., priority 2021, published 2025)
